Source: patent US20250059141A1, “TLR MODULATOR AND USE THEREOF” (DUALITY BIOLOGICS (SUZHOU) CO., LTD., priority 2021, published 2025)

How the values were obtained:
[1] = test system: TNF-α production in human PBMCs; assay: Induction of TNF-α in human PBMCs (ELISA); format: cell-based; conditions: PBMC, 24 h, serial 4-fold dilutions, class symbols, read-out: PBMC assay TNFa EC50
Protocol: (§1) In this example, the induction activity of the compounds of the present application on human PBMCs for TNF-α and IFN-α production was assessed in human PBMCs (human peripheral blood mononuclear cells). The human PBMCs were purchased from Shanghai Saily Biotechnology Co., Ltd. (Cat. No. XFB—HP100B). PBMC cells were treated with the compounds. The compounds of the present application are diluted in DMSO, for example, to about 15 mM. The reference compound was added to the plates in sequence after diluted to 5 mg/mL. The compounds were serially 3- or 4-fold diluted to 8 concentrations and added to plates in duplicate (Table 2-1 for serial 3-fold dilutions and Table 2-2 for serial 4-fold dilutions). For the negative control wells, DMSO was added at 0.4 μL/well, and a 5 mg/mL reference compound solution was added to the positive control wells at 0.4 μL/well. The final concentration of DMSO was 0.2%. Frozen human PBMCs in cryopreservation tubes were quickly thawed in a 37° C. water bath and transferred into 50-mL centrifuge tubes. Prewarmed RPMI1640 medium was gradually added and the mixture was well mixed and centrifuged for 15 min before the supernatant was discarded. The cells were resuspended in a culture medium and counted. The cell suspension was adjusted to 2.5×10^6 cells/mL with the culture medium. Diluted cells were added at 200 μL/500,000 cells/well in 96-well plates containing the compounds. The cell plates were incubated at 37° C./5% CO2 for 24 h.
The plate was then washed thrice. […] Termination of reaction: The reaction was terminated by quickly adding the stop solution at 100 μL/well. Plate reading: The reading at wavelength 450 nm was detected by an M2e instrument within 10 min after the termination.
(§2) Compound activity data analysis: The OD450 values were converted to TNF-α and IFN-α contents by GraphPad Prism software analysis and fitted to give dose-response curves of the compounds. The EC50 values for the compounds were calculated, where the Emax values are the maximal values for TNF-α and IFN-α.

[2] = test system: IFN-α production in human PBMCs; assay: Induction of IFN-α in human PBMCs (ELISA); format: cell-based; conditions: PBMC, 24 h, serial 4-fold dilutions, class symbols, read-out: PBMC assay IFNa EC50
Protocol: as §1
The plate was washed 4 times, then the detection antibody was added. […] The plate was washed 4 additional times, then the enzyme was added. […] Termination of reaction: The reaction was terminated by quickly adding the stop solution at 100 μL/well. Plate reading: The reading at wavelength 450 nm was detected by an M2e instrument within 10 min after the termination.
as §2

Structure (SMILES)	EC50 [1]	EC50 [2]
CCCN(OCc1ccc(N)cc1)C(=O)C1=Cc2ncc(-c3cncc(CO)c3)cc2N=C(N)C1 [Compound 61]	≤ 10 nM	10 to 50 nM
CCCN(OCc1ccc(N)cc1)C(=O)C1=Cc2ccc(-c3cncc(CO)c3)nc2N=C(N)C1 [Compound 62]	≤ 10 nM	≤ 10 nM
CCCN(OCc1ccc(N)cc1)C(=O)C1=Cc2ccc(-c3cnc4c(c3)C(=O)OC4)nc2N=C(N)C1 [Compound 63]	≤ 10 nM	10 to 50 nM
CCCN(OCc1ccc(N)cc1)C(=O)C1=Cc2ccc(-c3cccc(S(=O)(=O)NCCO)c3)cc2N=C(N)C1 [Compound 64]	≤ 10 nM	10 to 50 nM
CCCN(OCc1ccc(N)cc1)C(=O)C1=Cc2ccc(-c3cccc(S(=O)(=O)N4CCC(O)CC4)c3)cc2N=C(N)C1 [Compound 66]	≤ 10 nM	50 to 500 nM
CCCN(OCc1ccc(N)cc1)C(=O)C1=Cc2ccc(-c3cccc(S(=O)(=O)N4CCNCC4)c3)cc2N=C(N)C1 [Compound 67]	≤ 10 nM	> 500 nM
CCCN(OCc1ccc(N)cc1)C(=O)C1=Cc2ccc(-c3cccc(S(=O)(=O)N4CCOCC4)c3)cc2N=C(N)C1 [Compound 68]	≤ 10 nM	10 to 50 nM
CCCN(OCc1ccc(N)cc1)C(=O)C1=Cc2ccc(-c3cncc(S(=O)(=O)N4CCNCC4)c3)cc2N=C(N)C1 [Compound 69]	≤ 10 nM	50 to 500 nM
CCCN(OCc1ccc(N)cc1)C(=O)C1=Cc2ccc(-c3cncc(S(=O)(=O)NCCO)c3)cc2N=C(N)C1 [Compound 70]	≤ 10 nM	10 to 50 nM
CCCN(OCc1ccc(N)cc1)C(=O)C1=Cc2ccc(-c3cncc(S(=O)(=O)N4CCC(O)CC4)c3)cc2N=C(N)C1 [Compound 71]	≤ 10 nM	10 to 50 nM
CCCN(OCc1ccc(N)cc1)C(=O)C1=Cc2ccc(-c3cncc(S(=O)(=O)N4CC[C@H](O)C4)c3)cc2N=C(N)C1 [Compound 72]	≤ 10 nM	10 to 50 nM
CCCN(OCc1ccc(N)cc1)C(=O)C1=Cc2ccc(-c3cncc([S+](C)[O-])c3)cc2N=C(N)C1 (centres unmarked) [Compound 73]	≤ 10 nM	≤ 10 nM
CCCN(OCc1ccc(N)cc1)C(=O)C1=Cc2ccc(C(=O)NC(C)(C)c3ccccc3)cc2N=C(N)C1 [Compound 76]	≤ 10 nM	10 to 50 nM
CCCN(OCc1ccc(N)cc1)C(=O)C1=Cc2ccc(C(=O)N[C@@H](C)c3ccccc3)cc2N=C(N)C1 [Compound 77]	≤ 10 nM	10 to 50 nM
CCCN(OCc1ccc(N)cc1)C(=O)C1=Cc2ccc(C(=O)N[C@H]3C[C@@H]3c3ccccc3)cc2N=C(N)C1 [Compound 78]	≤ 10 nM	≤ 10 nM
CCCN(OCc1ccc(N)cc1)C(=O)C1=Cc2ccc(C(=O)NC3COC3)cc2N=C(N)C1 [Compound 81]	10 to 50 nM	10 to 50 nM
CCCN(OCc1ccc(N)cc1)C(=O)C1=Cc2ccc(C(=O)NC3CCCCC3)cc2N=C(N)C1 [Compound 82]	≤ 10 nM	50 to 500 nM
CCCN(OCc1ccc(N)cc1)C(=O)C1=Cc2ccc(C(=O)NC3CCOCC3)cc2N=C(N)C1 [Compound 84]	≤ 10 nM	50 to 500 nM
CCCN(OCc1ccc(N)cc1)C(=O)C1=Cc2ccc(C(=O)Nc3cncc(OC)c3)cc2N=C(N)C1 [Compound 85]	≤ 10 nM	50 to 500 nM
CCCN(OCc1ccc(N)cc1)C(=O)C1=Cc2ccc(C(=O)Nc3cccc(CN)c3)cc2N=C(N)C1 [Compound 86]	≤ 10 nM	50 to 500 nM
CCCN(OCc1ccc(N)cc1)C(=O)C1=Cc2ccc(C(=O)Nc3ncco3)cc2N=C(N)C1 [Compound 87]	≤ 10 nM	50 to 500 nM
CCCN(OCc1ccc(N)cc1)C(=O)C1=Cc2ccc(C(=O)Nc3ccn(C)n3)cc2N=C(N)C1 [Compound 88]	≤ 10 nM	50 to 500 nM
CCCN(OCc1ccc(N)cc1)C(=O)C1=Cc2ccc(C(=O)Nc3ccc4cn[nH]c4c3)cc2N=C(N)C1 [Compound 89]	10 to 50 nM	50 to 500 nM
CCCN(OCc1ccc(N)cc1)C(=O)C1=Cc2ccc(C(=O)Nc3ccc4c(c3)CNC4)cc2N=C(N)C1 [Compound 90]	≤ 10 nM	50 to 500 nM
CCCN(OCc1ccc(N)cc1)C(=O)C1=Cc2ccc(C(=O)N3CCN(C)CC3)cc2N=C(N)C1 [Compound 93]	≤ 10 nM	50 to 500 nM
CCCN(OCc1ccc(N)cc1)C(=O)C1=Cc2ccc(C(=O)N3CC(Oc4ccccc4)C3)cc2N=C(N)C1 [Compound 94]	≤ 10 nM	50 to 500 nM
CCCN(OCc1ccc(N)cc1)C(=O)C1=Cc2ccc(C(=O)N3CC4(COC4)C3)cc2N=C(N)C1 [Compound 95]	≤ 10 nM	50 to 500 nM
CCCN(OCc1ccc(N)cc1)C(=O)C1=Cc2ccc(C(=O)N3CCN(c4ccccc4)CC3)cc2N=C(N)C1 [Compound 97]	≤ 10 nM	> 500 nM
